Holding throughout (test): DTP human tumour cell line panel, 48 h
The subject of assay [1] is ACHN.
Assay [2] has as its system CAKI-1.
In assay [3] the test system is HCT-15.
For assay [4], the system named is HT-29.
In assay [5] the test system is KM12.
In assay [6] the test system is LOX IMVI.
Assay [7] has as its system M14.
Assay [8] has as its system NCI-H522.
The subject of assay [9] is OVCAR-4.
The subject of assay [10] is OVCAR-8.
For assay [11], the system named is RPMI-8226.
For assay [12], the system named is SF-268.
Assay [13] concerns SK-MEL-5.
Assay [14] relates to SK-OV-3.
For assay [15], the system named is SW-620.
In assay [16] the test system is UACC-62.
The subject of assay [17] is EKVX.

Each structure is given as a SMILES string.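 Where inhibition never reached the appropriate level, the endpoint shown equals the highest concentration tested. Otherwise, values were interpolated linearly from a five-concentration, 48-hour dose response in 96-well plates. The concentration for 50% growth inhibition is given as GI50.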 Active and inactive are the calls of the source. No stated cut-off is given here; in the data, active = GI50 up to about 1.1 µM and inactive = higher.

With `COc1cc(OC)c2c(c1OC)OCC(Cc1ccc(O)cc1)C2=O` (configuration not stated), the GI50 (as a rule, the concentration that inhibits growth by half) is > 25 µM (inactive) in assay [1]; > 25 µM (inactive) in assay [2]; above 25 µM in assay [3]; > 25 µM (inactive) in assay [4]; > 25 µM (inactive) in [5]; > 25 µM (inactive) in assay [6]. For the same compound, the GI50 in assay [7], in [8], in assay [9], in [10], in assay [11] and in assay [12] was > 25 µM (inactive) in each case. In addition, the GI50 in assay [13] is 19.8 µM (inactive); in [14] it was > 25 µM (inactive); in assay [15], > 25 µM (inactive); in assay [16], > 25 µM (inactive).

For `CN1C(=O)C2C(=O)N(Cc3ccccc3)CC(=O)N2c2cccnc21` (configuration not stated), the GI50 in assay [1] is > 100 µM (inactive); in assay [2], > 100 µM (inactive); in [17], > 100 µM (inactive); in [3], above 100 µM; in assay [4], > 100 µM (inactive); in [5], > 100 µM (inactive). In addition, the GI50 in assay [6], in assay [7], in [8], in assay [9], in [10] and in [11] was > 100 µM (inactive) each time. Also, the GI50 in assay [12], in [13], in [14] and in assay [16] was > 100 µM (inactive) throughout.

As to `NS(=O)(=O)c1ccc(NC(=O)c2cc([N+](=O)[O-])cc([N+](=O)[O-])c2)cc1`, the GI50 was > 100 µM (inactive) in [2]; 44.3 µM in [3]; 43.1 µM (inactive) in [4]; 40.4 µM (inactive) in assay [5]; 22.8 µM (inactive) in assay [6]; 47.8 µM (inactive) in [7]. In addition, the GI50 was 27.7 µM (inactive) in assay [9]; 47.3 µM (inactive) in assay [10]; 30.2 µM (inactive) in assay [11]; 32.4 µM (inactive) in assay [12]; 38.7 µM (inactive) in [13]; 80.4 µM (inactive) in assay [14]. For the same compound, the GI50 in assay [15] was 66.4 µM (inactive); in assay [16] it was 15.7 µM (inactive).

Take `CCOC(=O)c1nc2ccccc2nc1Oc1cc(OC)cc(OC)c1`: the GI50 was > 100 µM (inactive) in assay [1]; 60.1 µM (inactive) in assay [17]; above 100 µM in [3]; > 100 µM (inactive) in [4]; 76.9 µM (inactive) in assay [5]; > 100 µM (inactive) in [6]. The GI50 was > 100 µM (inactive) in assay [7]; 46.7 µM (inactive) in assay [8]; 8.49 µM (inactive) in [9]; > 100 µM (inactive) in [10]; > 100 µM (inactive) in assay [11]; 76.7 µM (inactive) in [12]. Also, the GI50 in assay [13], in [14], in [15] and in [16] was > 100 µM (inactive) throughout.

As to `CC(=O)c1nc2ccccc2n1CC(=O)c1ccc(Cl)cc1`, the GI50 in [2] was 5.25 µM (inactive); in [17], 38.2 µM (inactive); in [3], 5.2 µM; in assay [4], 12.1 µM (inactive); in [5], 3.02 µM (inactive); in assay [6] it was 0.925 µM (active). The GI50 was 2.92 µM (inactive) in assay [7]; 2.79 µM (inactive) in assay [8]; 5.26 µM (inactive) in assay [9]; 2.4 µM (inactive) in assay [10]; 3.65 µM (inactive) in assay [11]; 3.94 µM (inactive) in assay [12]. Moreover, the GI50 in [14] was 28.1 µM (inactive); in assay [15], 2.67 µM (inactive); in [16] it was 2.02 µM (inactive).

The values are drawn from ChEMBL document CHEMBL1201862, “PubChem BioAssay data set” (2004).
